Test results: ChEMBL document CHEMBL3885861, “Open TG-GATES”

Species: Rattus norvegicus
Experiment: Open TG-GATES - Regimen: Daily Repeat
Assay type: toxicity, organism-based, Sprague-Dawley
Set-up: regimen Daily Repeat, gender Male, age 6 weeks
Settings: in vivo, po, 1000 mg/kg, route gavage, dose level High; for APTT / Bas / Eos / Fbg / Hb / Ht / Lym / MCH / MCHC / MCV / Mono / Neu / PT / Plat / RBC / Ret / WBC: tissue Blood; for KIDNEY_L / KIDNEY_R / KIDNEY_TOTAL: tissue Kidney; for LIVER: tissue Liver; for A/G / ALP / ALT / AST / BUN / CRE / Ca / Cl / DBIL / GLC / IP / K / LDH / Na / PL / RALB / TBIL / TC / TG / TP / gamma-GTP: tissue Plasma

**Q.** What does the source list for COC1=CC(=O)C[C@@H](C)[C@]12Oc1c(Cl)c(OC)cc(OC)c1C2=O [GRISEOFULVIN]?
**A.** TERMINAL_BW (72 h, time 3 day): 225 g; APTT (72 h, time 3 day): 21.1 s; Bas (72 h, time 3 day): 0%; Eos (72 h, time 3 day): 1%; Fbg (72 h, time 3 day): 220.8 mg/dL; Hb (72 h, time 3 day): 13.5 g/dL; Ht (72 h, time 3 day): 39.9%; Lym (72 h, time 3 day): 79.2%; MCH (72 h, time 3 day): 21.2 pg; MCHC (72 h, time 3 day): 33.8%; MCV (72 h, time 3 day): 62.6 fL; Mono (72 h, time 3 day): 2.4%; Neu (72 h, time 3 day): 17%; PT (72 h, time 3 day): 12.5 s; Plat (72 h, time 3 day): 122 x10_4/uL; RBC (72 h, time 3 day): 637.2 x10_4/ul; Ret (72 h, time 3 day): 6.9%; WBC (72 h, time 3 day): 108.3 x10_2/uL; KIDNEY_L (72 h, time 3 day): 1 g; KIDNEY_R (72 h, time 3 day): 1 g; KIDNEY_TOTAL (72 h, time 3 day): 2 g; LIVER (72 h, time 3 day): 11.5 g; A/G (72 h, time 3 day): 1.6; ALP (72 h, time 3 day): 1064.4 IU/L; ALT (72 h, time 3 day): 40.6 IU/L; AST (72 h, time 3 day): 63.8 IU/L; BUN (72 h, time 3 day): 13.8 mg/dL; CRE (72 h, time 3 day): 0.4 mg/dL; Ca (72 h, time 3 day): 10.8 mg/dL; Cl (72 h, time 3 day): 103.6 meq/L; DBIL (72 h, time 3 day): 0.074 mg/dL; GLC (72 h, time 3 day): 213.4 mg/dL; IP (72 h, time 3 day): 7.8 mg/dL; K (72 h, time 3 day): 3.8 meq/L; LDH (72 h, time 3 day): 184.2 IU/L; Na (72 h, time 3 day): 140.2 meq/L; PL (72 h, time 3 day): 125.8 mg/dL; RALB (72 h, time 3 day): 3.4 g/dL; TBIL (72 h, time 3 day): 0.1 mg/dL; TC (72 h, time 3 day): 72.6 mg/dL; TG (72 h, time 3 day): 45 mg/dL; TP (72 h, time 3 day): 5.6 g/dL; gamma-GTP (72 h, time 3 day): 1.4 IU/L; TERMINAL_BW ([…], time 7 day): 266.7 g; TERMINAL_BW ([…], time 14 day): 318.3 g; TERMINAL_BW ([…], time 28 day): 423.7 g; APTT ([…], time 7 day): 21 s; Bas ([…], time 7 day): 0%; Eos ([…], time 7 day): 0.8%; Fbg ([…], time 7 day): 231.6 mg/dL; Hb ([…], time 7 day): 13.3 g/dL; Ht ([…], time 7 day): 38.9%; Lym ([…], time 7 day): 79.2%; MCH ([…], time 7 day): 21.5 pg; MCHC ([…], time 7 day): 34.2%; MCV ([…], time 7 day): 62.9 fL; Mono ([…], time 7 day): 3%; Neu ([…], time 7 day): 16.2%; PT ([…], time 7 day): 12.4 s; Plat ([…], time 7 day): 145.2 x10_4/uL; RBC ([…], time 7 day): 618 x10_4/ul; Ret ([…], time 7 day): 6.6%; WBC ([…], time 7 day): 110.8 x10_2/uL; APTT ([…], time 14 day): 20.2 s; Bas ([…], time 14 day): 0%; Eos ([…], time 14 day): 1%; Fbg ([…], time 14 day): 229.6 mg/dL; Hb ([…], time 14 day): 14.2 g/dL; Ht ([…], time 14 day): 42.1%; Lym ([…], time 14 day): 79.8%; MCH ([…], time 14 day): 21 pg; MCHC ([…], time 14 day): 33.8%; MCV ([…], time 14 day): 62 fL; Mono ([…], time 14 day): 3%; Neu ([…], time 14 day): 15.2%; PT ([…], time 14 day): 12.6 s; Plat ([…], time 14 day): 114.7 x10_4/uL; RBC ([…], time 14 day): 678.4 x10_4/ul; Ret ([…], time 14 day): 2.8%; WBC ([…], time 14 day): 112.6 x10_2/uL; APTT ([…], time 28 day): 24.8 s; Bas ([…], time 28 day): 0%; Eos ([…], time 28 day): 1%; Fbg ([…], time 28 day): 230.8 mg/dL; Hb ([…], time 28 day): 14.6 g/dL; Ht ([…], time 28 day): 43.2%; Lym ([…], time 28 day): 84.4%; MCH ([…], time 28 day): 20.4 pg; MCHC ([…], time 28 day): 33.9%; MCV ([…], time 28 day): 60.1 fL; Mono ([…], time 28 day): 2.4%; Neu ([…], time 28 day): 11.4%; PT ([…], time 28 day): 13 s; Plat ([…], time 28 day): 113.5 x10_4/uL; RBC ([…], time 28 day): 718.4 x10_4/ul; Ret ([…], time 28 day): 3.3%; WBC ([…], time 28 day): 158.4 x10_2/uL; KIDNEY_L ([…], time 7 day): 1.1 g; KIDNEY_R ([…], time 7 day): 1.1 g; KIDNEY_TOTAL ([…], time 7 day): 2.3 g; KIDNEY_L ([…], time 14 day): 1.3 g; KIDNEY_R ([…], time 14 day): 1.3 g; KIDNEY_TOTAL ([…], time 14 day): 2.6 g; KIDNEY_L ([…], time 28 day): 1.6 g; KIDNEY_R ([…], time 28 day): 1.5 g; KIDNEY_TOTAL ([…], time 28 day): 3.1 g; LIVER ([…], time 7 day): 13.5 g; LIVER ([…], time 14 day): 14.6 g; LIVER ([…], time 28 day): 19.4 g; A/G ([…], time 7 day): 1.3; ALP ([…], time 7 day): 845.8 IU/L; ALT ([…], time 7 day): 31.6 IU/L; AST ([…], time 7 day): 56.8 IU/L; BUN ([…], time 7 day): 15.2 mg/dL; CRE ([…], time 7 day): 0.4 mg/dL; Ca ([…], time 7 day): 10.8 mg/dL; Cl ([…], time 7 day): 103.8 meq/L; DBIL ([…], time 7 day): 0.064 mg/dL; GLC ([…], time 7 day): 207 mg/dL; IP ([…], time 7 day): 7.3 mg/dL; K ([…], time 7 day): 3.8 meq/L; LDH ([…], time 7 day): 150.2 IU/L; Na ([…], time 7 day): 142 meq/L; PL ([…], time 7 day): 126.8 mg/dL; RALB ([…], time 7 day): 3.4 g/dL; TBIL ([…], time 7 day): 0.1 mg/dL; TC ([…], time 7 day): 76.4 mg/dL; TG ([…], time 7 day): 45.4 mg/dL; TP ([…], time 7 day): 5.9 g/dL; gamma-GTP ([…], time 7 day): 1.2 IU/L; A/G ([…], time 14 day): 1.4; ALP ([…], time 14 day): 803.4 IU/L; ALT ([…], time 14 day): 32 IU/L; AST ([…], time 14 day): 56 IU/L; BUN ([…], time 14 day): 14.6 mg/dL; CRE ([…], time 14 day): 0.5 mg/dL; Ca ([…], time 14 day): 10.8 mg/dL; Cl ([…], time 14 day): 103 meq/L; DBIL ([…], time 14 day): 0.076 mg/dL; GLC ([…], time 14 day): 205.2 mg/dL; IP ([…], time 14 day): 7.4 mg/dL; K ([…], time 14 day): 4.2 meq/L; LDH ([…], time 14 day): 135.6 IU/L; Na ([…], time 14 day): 140.6 meq/L; PL ([…], time 14 day): 138.6 mg/dL; RALB ([…], time 14 day): 3.4 g/dL; TBIL ([…], time 14 day): 0.1 mg/dL; TC ([…], time 14 day): 81.4 mg/dL; TG ([…], time 14 day): 55.4 mg/dL; TP ([…], time 14 day): 5.9 g/dL; gamma-GTP ([…], time 14 day): 1 IU/L; A/G ([…], time 28 day): 1.3; ALP ([…], time 28 day): 500.8 IU/L; ALT ([…], time 28 day): 39.2 IU/L; AST ([…], time 28 day): 55 IU/L; BUN ([…], time 28 day): 14.8 mg/dL; CRE ([…], time 28 day): 0.5 mg/dL; Ca ([…], time 28 day): 10.5 mg/dL; Cl ([…], time 28 day): 103 meq/L; DBIL ([…], time 28 day): 0.062 mg/dL; GLC ([…], time 28 day): 234.6 mg/dL; IP ([…], time 28 day): 7.3 mg/dL; K ([…], time 28 day): 3.7 meq/L; LDH ([…], time 28 day): 159 IU/L; Na ([…], time 28 day): 140.6 meq/L; PL ([…], time 28 day): 138 mg/dL; RALB ([…], time 28 day): 3.4 g/dL; TBIL ([…], time 28 day): 0.1 mg/dL; TC ([…], time 28 day): 88.6 mg/dL; TG ([…], time 28 day): 38 mg/dL; TP ([…], time 28 day): 6.2 g/dL; gamma-GTP ([…], time 28 day): 0.8 IU/L
